Results as given in patent US9907859B2 (priority 2010, dated 2018).
In brackets after ≈: the same amount, converted by molar mass. Several values for one entry are separate records, joined by “and”; a condition that tells them apart may be missing. Equal values may be shown once. Read-outs that look alike come from different tables or passages of the source.

How the values were obtained:
[1] = system: vaccinia virus (VV); details: in vitro, read-out: 50% effective concentration [EC50], inhibition of virus replication; cited from earlier work
[2] = in vivo; details: for AUC(0-t) / Cmax / half-life / clearance: iv
[3] = both, New Zealand White, rabbit, in vivo, po, 100 mg/kg
[4] = in vivo; details: New Zealand White, rabbit, iv; for clearance: CL
[5] = physchem; details: aqueous with cosolvent or surfactant or cyclodextrin
[6] = system: ectromelia virus (ECTV); details: read-out: 50% effective concentration [EC50], inhibition of virus replication; cited from earlier work
[7] = system: VV; details: in vivo; cited from earlier work
[8] = in vivo; details: mouse, po
[9] = system: cowpox virus (CV); details: in vitro, read-out: 50% effective concentration [EC50], inhibition of virus replication; cited from earlier work
[10] = system: monkeypox; details: in vitro, read-out: 50% effective concentration [EC50], inhibition of virus replication; cited from earlier work
[11] = female, CD-1, mouse, in vivo; for Cmax: iv

O=C(NN1C(=O)C2C3C=CC(C4CC34)C2C1=O)c1ccc(C(F)(F)F)cc1 (stereo not drawn) [ST-246, 4-trifluoromethyl-N-(3,3a,4,4a,5,5a,6,6a-octahydro-1,3-dioxo-4,6-ethenocycloprop[f]isoindol-2(1H)-yl)-benzamide]
EC50 [1]: ≤ 70 nM
bioavailability ([2]; female, BALB/c (oral), CD-1 (IV), mouse, 30 mg/kg): ~41%
AUC(0-t) ([2]; female, BALB/c, mouse, 2.3 mg/kg, AUC0-24): 87.8 µg·h/mL
Cmax ([2]; female, BALB/c, mouse, 2.3 mg/kg, Cmax): 22.4 µg/mL
AUC(0-t) ([2]; female, BALB/c, mouse, 3 mg/kg, AUC0-24): 100 µg·h/mL
Cmax ([2]; female, BALB/c, mouse, 3 mg/kg, Cmax): 78.4 µg/mL
AUC(0-t) ([2]; female, BALB/c, mouse, 7.6 mg/kg, AUC0-24): 218 µg·h/mL
Cmax ([2]; female, BALB/c, mouse, 7.6 mg/kg, Cmax): 37.6 µg/mL
AUC(0-t) ([2]; female, BALB/c, mouse, 30 mg/kg, AUC0-24): 300 µg·h/mL
Cmax ([2]; female, BALB/c, mouse, 30 mg/kg, Cmax): 149 µg/mL
AUC(0-t) ([2]; female, BALB/c, mouse, 34.3 mg/kg, AUC0-24): 873 µg·h/mL
Cmax ([2]; female, BALB/c, mouse, 34.3 mg/kg, Cmax): 162 µg/mL
half-life ([2]; female, CD-1, mouse): 2.5 to 4.5 h
clearance ([2]; female, CD-1, mouse, 3 mg/kg): 0.717 mL/min/kg
half-life ([2]; female, CD-1, mouse, 3 mg/kg): 4.5 h
AUC(0-t) ([2]; female, CD-1, mouse, 3 mg/kg, AUC0-24): 67.9 µg·h/mL
AUC(0-t) ([2]; female, CD-1, mouse, 3 mg/kg, AUC0-24 hr): 68 µg·h/mL
Cmax ([2]; female, CD-1, mouse, 3 mg/kg, Cmax): 16.7 µg/mL
clearance ([2]; female, CD-1, mouse, 10 mg/kg): 0.417 mL/min/kg
half-life ([2]; female, CD-1, mouse, 10 mg/kg): 2.8 h
AUC(0-t) ([2]; female, CD-1, mouse, 10 mg/kg, AUC0-24): 408 µg·h/mL
AUC(0-t) ([2]; female, CD-1, mouse, 10 mg/kg, AUC0-24 hr): 408 µg·h/mL
Cmax ([2]; female, CD-1, mouse, 10 mg/kg, Cmax): 63.5 µg/mL
clearance ([2]; female, CD-1, mouse, 30 mg/kg): 0.7 mL/min/kg
half-life ([2]; female, CD-1, mouse, 30 mg/kg): 2.5 h
AUC(0-t) ([2]; female, CD-1, mouse, 30 mg/kg, AUC0-24): 709 µg·h/mL
AUC(0-t) ([2]; female, CD-1, mouse, 30 mg/kg, AUC0-24 hr): 709 µg·h/mL
Cmax ([2]; female, CD-1, mouse, 30 mg/kg, Cmax): 127 µg/mL
clearance ([2]; female, CD-1, mouse, 75 mg/kg): 1 mL/min/kg
half-life ([2]; female, CD-1, mouse, 75 mg/kg): 2.8 h
AUC(0-t) ([2]; female, CD-1, mouse, 75 mg/kg, AUC0-24): 1250 µg·h/mL
AUC(0-t) ([2]; female, CD-1, mouse, 75 mg/kg, AUC0-24 hr): 1250 µg·h/mL
Cmax ([2]; female, CD-1, mouse, 75 mg/kg, Cmax): 238 µg/mL
Cmax ([2]; female, CD-1, mouse, 75 mg/kg, mean Cmax): 238 µg/mL
Cmax ([2]; female, mouse, 30 mg/kg, Cmax): 120 µg/mL
AUC(0-t) ([2]; male, BALB/c, mouse, 2.3 mg/kg, AUC0-24): 73.3 µg·h/mL
Cmax ([2]; male, BALB/c, mouse, 2.3 mg/kg, Cmax): 20 µg/mL
AUC(0-t) ([2]; male, BALB/c, mouse, 7.6 mg/kg, AUC0-24): 170 µg·h/mL
Cmax ([2]; male, BALB/c, mouse, 7.6 mg/kg, Cmax): 53.8 µg/mL
AUC(0-t) ([2]; male, BALB/c, mouse, 34.3 mg/kg, AUC0-24): 798 µg·h/mL
Cmax ([2]; male, BALB/c, mouse, 34.3 mg/kg, Cmax): 191 µg/mL
AUC0-24 hr [3]: 19.8 ± 16.6 µg·h/mL
AUC(0-t) ([4]; 1 mg/kg, AUC0-24 hr): 1.43 ± 0.4 µg·h/mL
clearance ([4]; 1 mg/kg): 27.7 mL/min/kg
Cmax ([4]; 1 mg/kg, Cmax): 1.67 ± 2.27 µg/mL
half-life ([4]; 1 mg/kg, T1/2): 0.9 ± 0.2 h
AUC(0-t) ([4]; both, 3 mg/kg, AUC0-24): 2.38 µg·h/mL
AUC(0-t) ([4]; both, 3 mg/kg, AUC0-24 hr): 2.38 ± 0.93 µg·h/mL
clearance ([4]; both, 3 mg/kg): 22.3 mL/min/kg
Cmax ([4]; both, 3 mg/kg, Cmax): 3.03 ± 0.37 µg/mL
Cmax ([4]; both, 3 mg/kg, mean Cmax): 5.79 µg/mL
AUC(0-t) ([4]; both, 30 mg/kg, AUC0-24 hr): 13.3 ± 0.7 µg·h/mL
clearance ([4]; both, 30 mg/kg): 37.1 mL/min/kg
Cmax ([4]; both, 30 mg/kg, Cmax): 38.5 ± 3.7 µg/mL
half-life ([4]; both, 30 mg/kg, T1/2): 12.2 ± 5.8 h
AUC(0-t) ([4]; both, 60 mg/kg, AUC0-24 hr): 61.8 ± 8.7 µg·h/mL
clearance ([4]; both, 60 mg/kg): 16.4 mL/min/kg
Cmax ([4]; both, 60 mg/kg, Cmax): 94.1 ± 11.1 µg/mL
half-life ([4]; both, 60 mg/kg, T1/2): 5.2 ± 0.8 h
Cmax ([4]; both, 60 mg/kg, mean Cmax): 94.1 µg/mL
half-life ([4]; both, elimination half-lives): 1 to 12.2 h
AUC(0-t) ([4]; female, 1 mg/kg, AUC0-24): 1.15 µg·h/mL
Cmax ([4]; female, 1 mg/kg, Cmax): 0.679 µg/mL
half-life ([4]; female, 1 mg/kg, T1/2): 0.69 h
AUC(0-t) ([4]; female, 3 mg/kg, AUC0-24): 3.21 µg·h/mL
Cmax ([4]; female, 3 mg/kg, Cmax): 3.33 µg/mL
AUC(0-t) ([4]; female, 30 mg/kg, AUC0-24): 14.9 µg·h/mL
Cmax ([4]; female, 30 mg/kg, Cmax): 37.1 µg/mL
half-life ([4]; female, 30 mg/kg, T1/2): 16.3 h
AUC(0-t) ([4]; female, 60 mg/kg, AUC0-24): 60.1 µg·h/mL
Cmax ([4]; female, 60 mg/kg, Cmax): 88.2 µg/mL
half-life ([4]; female, 60 mg/kg, T1/2): 4.6 h
AUC(0-t) ([4]; male, 1 mg/kg, AUC0-24): 1.71 µg·h/mL
Cmax ([4]; male, 1 mg/kg, Cmax): 0.769 µg/mL
half-life ([4]; male, 1 mg/kg, T1/2): 1.1 h
AUC(0-t) ([4]; male, 3 mg/kg, AUC0-24): 1.87 µg·h/mL
half-life ([4]; male, 3 mg/kg, T1/2): 3.2 h
AUC(0-t) ([4]; male, 30 mg/kg, AUC0-24): 16.2 µg·h/mL
Cmax ([4]; male, 30 mg/kg, Cmax): 40 µg/mL
half-life ([4]; male, 30 mg/kg, T1/2): 8.1 h
AUC(0-t) ([4]; male, 60 mg/kg, AUC0-24): 72.3 µg·h/mL
Cmax ([4]; male, 60 mg/kg, Cmax): 99.9 µg/mL
half-life ([4]; male, 60 mg/kg, T1/2): 5.7 h
solubility ([5]; 4 °C, Solubility of ST-246, 4 ° C.): 6290 µg/mL (≈ 16.7 mM)
solubility ([5]; 25 °C, Solubility of ST-246, 25 ° C.): 7570 µg/mL (≈ 20.1 mM)
solubility ([5]; 40 °C, Solubility of ST-246, 40 ° C.): 11200 µg/mL (≈ 29.7 mM)
solubility ([5]; 60 °C, Solubility of ST-246, 60 ° C.): 16200 µg/mL (≈ 43.2 mM)
EC50 [6]: ≤ 70 nM
preventing or reducing mortality [7]: highly effective in preventing or reducing mortality
toxicity in animal model [7]: nontoxic
half-life ([8]; female, BALB/c): 2.2 to 4.5 h
CL/F ([8]; female, BALB/c, 30 mg/kg): 1.7 mL/min/kg
half-life ([8]; female, BALB/c, 30 mg/kg): 2.4 h
AUC(0-t) ([8]; female, BALB/c, 30 mg/kg, AUC0-24): 292 µg·h/mL
AUC(0-t) ([8]; female, BALB/c, 30 mg/kg, AUC0-24 hr): 292 µg·h/mL
Cmax ([8]; female, BALB/c, 30 mg/kg): 37.5 µg/mL
CL/F ([8]; female, BALB/c, 100 mg/kg): 3.65 mL/min/kg
half-life ([8]; female, BALB/c, 100 mg/kg): 2.2 h
AUC(0-t) ([8]; female, BALB/c, 100 mg/kg, AUC0-24 hr): 456 µg·h/mL
Cmax ([8]; female, BALB/c, 100 mg/kg): 43.8 µg/mL
CL/F ([8]; female, BALB/c, 300 mg/kg): 7.3 mL/min/kg
half-life ([8]; female, BALB/c, 300 mg/kg): 4.1 h
AUC(0-t) ([8]; female, BALB/c, 300 mg/kg, AUC0-24 hr): 669 µg·h/mL
Cmax ([8]; female, BALB/c, 300 mg/kg): 64 µg/mL
CL/F ([8]; female, BALB/c, 1000 mg/kg): 18.9 mL/min/kg
half-life ([8]; female, BALB/c, 1000 mg/kg): 4.5 h
AUC(0-t) ([8]; female, BALB/c, 1000 mg/kg, AUC0-24 hr): 852 µg·h/mL
Cmax ([8]; female, BALB/c, 1000 mg/kg): 66 µg/mL
AUC(0-t) ([8]; female, 100 mg/kg, AUC0-24): 456 µg·h/mL
AUC(0-t) ([8]; female, 300 mg/kg, AUC0-24): 669 µg·h/mL
Cmax ([8]; female, 300 mg/kg): 64 µg/mL
AUC(0-t) ([8]; female, 500 mg/kg, AUC0-24): 515 µg·h/mL
Cmax ([8]; female, 500 mg/kg): 56.6 µg/mL
AUC(0-t) ([8]; female, 600 mg/kg, AUC0-24): 854 µg·h/mL
Cmax ([8]; female, 600 mg/kg): 95.3 µg/mL
Cmax ([8]; female, 1000 mg/kg): 66.3 µg/mL
AUC(0-t) ([8]; female, 2000 mg/kg, AUC0-24): 607 µg·h/mL
Cmax ([8]; female, 2000 mg/kg): 69.9 µg/mL
AUC(0-t) ([8]; male, BALB/c, 30 mg/kg, AUC0-24): 241 µg·h/mL
Cmax ([8]; male, BALB/c, 30 mg/kg): 30.4 µg/mL
Cmax ([8]; male, BALB/c, 100 mg/kg): 38.4 µg/mL
AUC(0-t) ([8]; male, 100 mg/kg, AUC0-24): 343 µg·h/mL
AUC(0-t) ([8]; male, 300 mg/kg, AUC0-24): 484 µg·h/mL
Cmax ([8]; male, 300 mg/kg): 48.5 µg/mL
AUC(0-t) ([8]; male, 500 mg/kg, AUC0-24): 413 µg·h/mL
Cmax ([8]; male, 500 mg/kg): 36.6 µg/mL
AUC(0-t) ([8]; male, 600 mg/kg, AUC0-24): 765 µg·h/mL
Cmax ([8]; male, 600 mg/kg): 82.8 µg/mL
Cmax ([8]; male, 1000 mg/kg): 61.1 µg/mL
AUC(0-t) ([8]; male, 2000 mg/kg, AUC0-24): 508 µg·h/mL
Cmax ([8]; male, 2000 mg/kg): 50.9 µg/mL
EC50 [9]: ≤ 70 nM
EC50 [10]: ≤ 70 nM
average plasma concentration at the end of infusion ([11]; 75 mg/kg): 238, 333 ng/mL
Cmax ([11]; 10 mg/kg): 64 µg/mL
Cmax ([11]; 30 mg/kg): 147.333 µg/mL
Cmax ([11]; 75 mg/kg): 238 µg/mL
Solubility of ST-246 (4 ° C.): 5.47 and 6.05
Solubility of ST-246 (25 ° C.): 9.21 and 10.59
Solubility of ST-246 (40 ° C.): 12.99 and 12.23
Solubility of ST-246 (60 ° C.): 17.41 and 16.21
